Laboratory results: PMC8070745, “FEN1 Blockade for Platinum Chemo-Sensitization and Synthetic Lethality in Epithelial Ovarian Cancers” (Cancers, 2021)

Key:
Format in all cases: cell-based, human
PEO4 cells = experiment: Annexin V apoptosis detection, PEO4; details: FEN1i plus cisplatin
Method: The samples were analysed on a Beckman-Coulter FC500 flow cytometer using a 488nm laser for excitation and emission data for PI collected using a 620nm bandpass filter (FL3) and a 525nm bandpass filter (FL1) for FITC-anti-phospho-Histone H2A.X.
Apoptosis detection: Annexin V detection kit (556547, BD Biosciences) was used to quantify apoptotic cells. Briefly, cells were trypsinized, washed with PBS and the cellular pellet was re-suspended in Anexin Binding Buffer (1×). Following, FITC Anexin V and Propidium Iodide were added to the cells. After incubation, Anexin binding Buffer (1×) was added to each tube. All the samples were analysed on a Beckman-Coulter FC500 flow cytometer. The percentage of apoptotic cells was determined (late apoptotic = FITC-Annexin V positive, PI positive early apoptotic = FITC-Annexin V positive, PI negative; live cells = FITC-Annexin V negative, PI negative) and compared for untreated and treated samples. Graphical representation and statistical analysis was performed in GraphPad Prism 7 (GraphPad, La Jolla, USA).
3D Spheroid assays: A2780_control and A2780 FEN1_ KO as well as A2780cis_control and A2780cis FEN1_ KO cells were seeded at 4500 cells/cm2 density in ultra-low attachment 6-well plates (174932, Thermo Fisher Scientific) and cultured in 3D Tumorsphere Medium (C28070, PromoCell, UK) at 37°C in a 5% CO2 atmosphere. […]

[1] = system: FEN1 nuclear level in A2780 cells; experiment: Nuclear extract western blot for FEN1, A2780; details: 5 µM cisplatin, 24 h
Method: (§1) Clonogenic assay: In the clonogenic assay (colony formation assays), 32 cells/cm2 were seeded in 6-well plates and left at 37°C in a 5% CO2 atmosphere. Cisplatin (5µM) and/or FEN1i (10µM) and/or Importazole (5 µM, Selleckem, S8446 ) were added at the indicated concentrations and the plates were left at 37 °C in a 5% CO 2 atmosphere for 14 days. Later, the plates were washed with PBS, fixed and stained with a crystal violet, acetic acid and methanol solution and colonies were counted.
(§2) Nuclear and cytoplasmic extract: Cells were harvest by trypsinization, washed with PBS and centrifuged at 1000×g for 5min. […] Protein level were then quantified prior to use in western blots.
(§3) BCA protein quantification: Protein quantification was done using the Pierce BCA kit assay by Thermo Fisher Scientific. […] The plate was incubated at 37°C during 30 min in the dark and the absorbance was measured by FLUOstar OPTIMA, UK/ Infinite® F50 (UK) microplate reader at 590 nm. […]
(§4) Western Blot Analysis: Cells were harvested and lysed in RIPA buffer (R0278, Sigma) with the addition of protease cocktail inhibitor (P8348, Sigma), phosphatase inhibitor cocktail 2 (P5726, Sigma) and phosphatase inhibitor cocktail 3 (P0044, Sigma) and stored at - 20°C. Protein was quantified using BCA Protein Assay kit (23225, Thermo Fisher). […]

[2] = system: FEN1 nuclear level in A2780cis cells; experiment: Nuclear extract western blot for FEN1, A2780cis; details: 5 µM cisplatin, 24 h
Method: as §1, §2, §3, §4

SMILES	apoptosis (PEO4 cells)	nuclear level of FEN1 after cisplatin [1]	nuclear level of FEN1 after cisplatin [2]
Cc1csc2c1c(=O)n(O)c(=O)n2-c1ccccc1 [PTPD, 3-hydroxy-5-methyl-1-phenylthieno [2,3 d]pyrimidine-2,4(1H,3H)-dione]	accumulation of apoptotic cells	–	–
N.N.[Cl][Pt][Cl] [cisplatin]	–	significantly decreased	significantly increased
